In patent US20170239249A1, “QUINAZOLINE-BASED KINASE INHIBITORS” (Bristol-Myers Squibb Company, priority 2014, published 2017):

molecular target: AAK1 (full length human) (Homo sapiens, UniProt Q2M2I8); experiment: HEK281 Cell-Based Assay (phospho-mu2 Western blot in HEK293F cells transfected with AAK1 and AP2M1); conditions: IC50 (nM), functional potency; inhibition of mu2 phosphorylation in HEK293F cells, 3 hours incubation, 5 concentrations
Sequence (Q2M2I8 1-863 isoform Q2M2I8-2): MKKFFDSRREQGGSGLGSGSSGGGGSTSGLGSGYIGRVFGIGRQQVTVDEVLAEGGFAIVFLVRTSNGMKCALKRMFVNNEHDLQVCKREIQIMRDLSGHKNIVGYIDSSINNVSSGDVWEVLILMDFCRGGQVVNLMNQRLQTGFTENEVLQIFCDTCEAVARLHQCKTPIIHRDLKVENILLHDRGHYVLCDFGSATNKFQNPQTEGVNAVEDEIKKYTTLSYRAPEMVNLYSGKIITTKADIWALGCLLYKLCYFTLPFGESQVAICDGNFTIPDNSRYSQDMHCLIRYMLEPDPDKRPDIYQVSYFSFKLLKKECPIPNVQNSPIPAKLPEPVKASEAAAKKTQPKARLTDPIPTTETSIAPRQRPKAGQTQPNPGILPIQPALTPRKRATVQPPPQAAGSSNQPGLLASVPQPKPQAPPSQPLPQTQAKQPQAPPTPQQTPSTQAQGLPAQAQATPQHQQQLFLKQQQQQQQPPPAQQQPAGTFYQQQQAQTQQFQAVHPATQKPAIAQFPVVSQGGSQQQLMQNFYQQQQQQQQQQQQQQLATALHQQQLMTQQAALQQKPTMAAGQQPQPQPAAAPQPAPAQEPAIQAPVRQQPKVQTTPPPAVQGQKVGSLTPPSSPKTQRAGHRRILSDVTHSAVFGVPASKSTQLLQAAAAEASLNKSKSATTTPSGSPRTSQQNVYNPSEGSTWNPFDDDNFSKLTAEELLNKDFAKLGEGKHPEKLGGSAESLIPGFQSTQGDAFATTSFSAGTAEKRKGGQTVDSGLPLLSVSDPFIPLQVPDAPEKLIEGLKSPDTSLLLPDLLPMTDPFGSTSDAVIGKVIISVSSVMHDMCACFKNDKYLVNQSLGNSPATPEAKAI

Structure (SMILES) | IC50 [nM]
CCc1nc(C(C)CC(C)C)nc2ccc(-c3ccnc(NC)c3)cc12 (centres unmarked) [Example 67, 4-(4-Ethyl-2-(4-methylpentan-2-yl)quinazolin-6-yl)-N-methylpyridin-2-amine] | 1500
CCc1nc(C(CN)CC(C)C)nc2ccc(-c3ccncc3)cc12 (centres unmarked) [Example 68, 2-(4-Ethyl-6-(pyridin-4-yl)quinazolin-2-yl)-4-methylpentan-1-amine] | 144
CCc1nc(C(N)CCC(F)(F)F)nc2ccc(-c3ccncc3)cc12 (centres unmarked) [Example 69, 1-(4-Ethyl-6-(pyridin-4-yl)quinazolin-2-yl)-4,4,4-trifluorobutan-1-amine] | 32
CCc1nc([C@H](N)CC2CC2)nc2ccc(-c3ccncc3)cc12 [Example 70, (R)-2-Cyclopropyl-1-(4-ethyl-6-(pyridin-4-yl)quinazolin-2-yl)ethanamine] | 126
CCc1nc([C@H](N)C2CCCC2)nc2ccc(-c3ccncc3)cc12 [Example 71, (R)-Cyclopentyl(4-ethyl-6-(pyridin-4-yl)quinazolin-2-yl)methanamine] | 32
CCc1nc([C@H](N)C2CCCCC2)nc2ccc(-c3ccncc3)cc12 [Example 72, (R)-Cyclohexyl(4-ethyl-6-(pyridin-4-yl)quinazolin-2-yl)methanamine] | 13
CC(C)CC(N)c1nc(N2CCC2)c2cc(-c3ccncc3)ccc2n1 (centres unmarked) [Example 73, 1-(4-(Azetidin-1-yl)-6-(pyridin-4-yl)quinazolin-2-yl)-3-methylbutan-1-amine] | 44
CC(C)CC(N)c1nc(N2CC2)c2cc(-c3ccncc3)ccc2n1 (centres unmarked) [Example 74, 1-(4-(Aziridin-1-yl)-6-(pyridin-4-yl)quinazolin-2-yl)-3-methylbutan-1-amine] | 263
COc1cc2nc(CCC(C)C)nc(C)c2cc1-c1cnco1 [Example 75, 5-(2-Isopentyl-7-methoxy-4-methylquinazolin-6-yl)oxazole] | 590
CC(C)CCc1nc(NCCO)c2cc(-c3cnco3)ccc2n1 [Example 76, 2-((2-Isopentyl-6-(oxazol-5-yl)quinazolin-4-yl)amino)ethanol] | 1810
COCCNc1nc(CCC(C)C)nc2ccc(-c3cnco3)cc12 [Example 77, 2-Isopentyl-N-(2-methoxyethyl)-6-(oxazol-5-yl)quinazolin-4-amine] | 3460
CC(C)CCc1nc(NCCN2CCCC2)c2cc(-c3cnco3)ccc2n1 [Example 78, 2-Isopentyl-6-(oxazol-5-yl)-N-(2-(pyrrolidin-1-yl)ethyl)quinazolin-4-amine] | 1090
Cc1cnc(CNc2nc(CCC(C)C)nc3ccc(-c4cnco4)cc23)cn1 [Example 79] | 6600
CC(C)CCc1nc(NCCCN(C)C)c2cc(-c3cnco3)ccc2n1 [Example 80, N^1-(2-Isopentyl-6-(oxazol-5-yl)quinazolin-4-yl)-N^3,N^3-dimethylpropane-1,3-diamine] | 3320
CC(C)CCc1nc(NCCN(C)C)c2cc(-c3cnco3)ccc2n1 [Example 81, N^1-(2-Isopentyl-6-(oxazol-5-yl)quinazolin-4-yl)-N^2,N^2-dimethylethane-1,2-diamine] | 8610
COC(=O)CCNc1nc(CCC(C)C)nc2ccc(-c3cnco3)cc12 [Example 82, Methyl 3-((2-isopentyl-6-(oxazol-5-yl)quinazolin-4-yl)amino)propanoate] | 4620
CC(C)CCc1nc(N2CCC2)c2cc(-c3cnco3)ccc2n1 [Example 83, 5-(4-(Azetidin-1-yl)-2-isopentylquinazolin-6-yl)oxazole] | 812
CC(C)CCc1nc(NC2CC2)c2cc(-c3cnco3)ccc2n1 [Example 84, N-Cyclopropyl-2-isopentyl-6-(oxazol-5-yl)quinazolin-4-amine] | 2580
CCc1nc(C(N)CC(C)C)nc2cc(OC)c(-c3cnco3)cc12 (centres unmarked) [Example 85, 1-(4-Ethyl-7-methoxy-6-(oxazol-5-yl)quinazolin-2-yl)-3-methylbutan-1-amine] | 24
CCc1nc(C(N)CC(C)C)nc2cc(OC)c(-c3ccncc3)cc12 (centres unmarked) [Example 88, 1-(4-Ethyl-7-methoxy-6-(pyridin-4-yl)quinazolin-2-yl)-3-methylbutan-1-amine] | 932
